Laboratory results as given in patent US6943183B2 (Pfizer Inc, priority 2000, dated 2005).
Where a name gives a salt, the structure may show the parent alone.

Target: T1, SF9 affinity purified rat FPT (Rattus norvegicus, UniProt Q02293+Q04631)
T1 construct: made in house; host or cells: Sf9 insect cells
Assay: PFT (FPT) inhibitory activity assay, radiolabeled farnesyl pyrophosphate and biotinyl peptide, streptavidin beads
Type: biochemical
Conditions: HEPES buffer pH 7.4, 30° C., 30 minutes; read-out: FTase IC50
Method: The PFT or FPT inhibitory activity of compounds of the present invention were assayed in HEPES buffer (pH 7.4) containing 5 mM potassium phosphate and 20 μM ZnCl2. The solution also contained 5 mM DTT (dithiothreitol), 5 mM MgCl2, and 0.1% PEG 8000. Assays were performed in 96 well plates (Wallec) and employed solutions composed of varying concentrations of a compound of the present invention in 10% DMSO (dimethylsulfoxide). […] After incubation at 30° C. for 30 minutes, the reaction was terminated by diluting the reaction 2.5-fold with a stop buffer containing 1.5 M magnesium acetate, 0.2 M H3PO4, 0.5% BSA (bovine serum albumin), and strepavidin beads (Amersham) at a concentration of 1.3 mg/mL. […] The assay was also carried out without 5 mM potassium phosphate.

Compound | IC50 [nM]
6-((1S)-2-Indazolyl-1-phenylethoxy)-5-amino-2,3,4-trihydronaphthalen-1-one [Compound 37] | 13
CCC(C)OCc1c(O[C@H](Cn2ccnc2)c2ccccc2)ccc2c1CCCC2=O (mixture of isomers) [Compound 19d, (±)5-sec-Butoxymethyl-6-((S)-2-imidazol-1-yl-1-phenyl-ethoxy)-3,4-dihydro-2H-naphthalen-1-one] | 1.9
O=C1CCC(c2ccccc2)c2cc(OC(Cn3ccnc3)c3ccccc3)ccc21 (racemic) [Compound 48, (±)-6-(2-imidazolyl-O-phenylethoxy)-4-phenyl-2,3,4-trihydronaphthalen-1-one] | 35
C=C(C)Cc1c(OC(Cn2ccnc2)c2ccccc2)ccc2c1CCCC2=O (racemic) [Compound 52, (±)-6-(2-Imidazolyl-1-phenylethoxy)-5-(2-methylprop-2-enyl)-2,3,4-trihydronaphthalen-1-one] | 8
C=CCc1c(OC(Cn2ccnc2)c2ccccc2Cl)ccc2c1CCCC2=O (racemic) [Compound 59, (±)-6-[1-(2-Chlorophenyl)-2-imidazolylethoxy]-5-prop-2-enyl-2,3,4-trihydronaphthalen-1-one] | 12
C=CCc1c(OC(Cn2ccnc2)c2c(Cl)cccc2Cl)ccc2c1CCCC2=O (racemic) [Compound 60, (±)-6-[0-(2,6-Dichlorophenyl)-2-imidazolylethoxy]-5-prop-2-enyl-2,3,4-trihydronaphthalen-1-one, Trifluoroacetic Acid] | 29
O=C1CCCc2c1ccc(O[C@H](Cn1ccnc1)c1ccccc1)c2C[S+]([O-])c1ccccn1 (mixture of isomers) [Compound 142, 6-((S)-2-Imidazol-1-yl-1-phenyl-ethoxy)-5-(pyridine-2-sulfinylmethyl)-3,4-dihydro-2H-napthalen-1-one] | 0.55
CC(C)[S+]([O-])Cc1c(O[C@H](Cn2ccnc2)c2ccccc2)ccc2c1CCCC2=O (mixture of isomers) [Compound 143, 6-((S)-2-Imidazol-1-yl-1-phenyl-ethoxy)-5-(propane-2-sulfinylmethyl)-3,4-dihydro-2H-napthalen-1-one] | 1.4
O=C1CCCc2c1ccc(O[C@H](Cn1ccnc1)c1ccccc1)c2CSc1ccccc1 [Compound 1, 6-((1S)-2-Imidazolyl-1-phenylethoxy)-5-(phenylthiomethyl)-2,3,4-trihydronaphthalen-1-one] | 0.3
O=C1CCCc2c1ccc(O[C@H](Cn1ccnc1)c1ccccc1)c2C[S+]([O-])c1ccccc1 (stereo partly shown) [Compound 2] | 3
O=C1CCCc2c1ccc(O[C@H](Cn1ccnc1)c1ccccc1)c2CS(=O)(=O)c1ccccc1 [Compound 3] | 0.3
CC(C)SCc1c(O[C@H](Cn2ccnc2)c2ccccc2)ccc2c1CCCC2=O [Compound 6, 6-((S)-2-Imidazol-1-yl-1-phenyl-ethoxy)-5-isopropylsulfanylmethyl-2,3,4-trihydronaphthalen-1-one] | 0.4
CC(C)S(=O)(=O)Cc1c(O[C@H](Cn2ccnc2)c2ccccc2)ccc2c1CCCC2=O [Compound 7] | 6
O=C1CCCc2c1ccc(O[C@H](Cn1ccnc1)c1ccccc1)c2CSc1ccccn1 [Compound 9, 6-((1S)-2-Imidazolyl-1-phenylethoxy)-5-(2-pyridylthiomethyl)-2,3,4-trihydronaphthalen-1-one] | 4
O=C1CCCc2c1ccc(O[C@H](Cn1ccnc1)c1ccccc1)c2CS(=O)(=O)c1ccccn1 [Compound 10, 6-(1S)-2-Imidazolyl-1-phenylethoxy)-5-[(2-pyridylsulfonyl)methyl]-2,3,4-trihydronaphthalen-1-one hydrochloride] | 0.3
O=C1CCCc2c1ccc(O[C@H](Cn1ccnc1)c1ccccc1)c2CSCc1ccc(Cl)c(Cl)c1 [Compound 10c, 5-(3,4-Dichloro-benzylsulfanylmethyl)-6-((1S)-2-imidazol-1-yl-1-phenyl-ethoxy)-3,4-dihydro-2H-naphthalen-1-one] | 5.3
O=C1CCCc2c1ccc(O[C@H](Cn1ccnc1CO)c1ccccc1)c2CS(=O)(=O)c1ccccc1 [Compound 10d, (S)-6{2-[2-(Hydroxymethyl)-1H-imidazol-1-yl]-1-phenylethoxy}-5-[(phenylsulfonyl)methyl]-3,4-dihydro-1(2H)-naphthalenone] | 5.5
O=C1CCCc2c1ccc(O[C@H](Cn1ccnc1)c1ccccc1)c2CNc1ccccc1 [Compound 11] | 0.2
CN(Cc1c(O[C@H](Cn2ccnc2)c2ccccc2)ccc2c1CCCC2=O)c1ccccc1 [Compound 12] | 4
CC(C)OCc1c(O[C@H](Cn2ccnc2)c2ccccc2)ccc2c1CCCC2=O [Compound 15, hydrochloride] | 0.2
C=CCOCc1c(O[C@H](Cn2ccnc2)c2ccccc2)ccc2c1CCCC2=O [Compound 18, 6-((1S)-2-imidazolyl-1-phenylethoxy)-5-(prop-2-enyloxymethyl)-2,3,4-trihydronaphthalen-1-one] | 8
CC(C)COCc1c(O[C@H](Cn2ccnc2)c2ccccc2)ccc2c1CCCC2=O [Compound 19a, 6-((S)-2-Imidazol-1-yl-1-phenyl-ethoxy)-5-isobutoxymethyl-1-3,4-dihydro-2H-naphthalen-1-one] | 1.9
CCC(CC)OCc1c(O[C@H](Cn2ccnc2)c2ccccc2)ccc2c1CCCC2=O [Compound 19c, 5-(1-Ethyl-propoxymethyl)-6-((S)-2-imidazol-1-yl-1-phenyl-ethoxy)-3,4-dihydro-2H-naphthalen-1-one] | 1.4
O=C1CCCc2c1ccc(O[C@H](Cn1ccnc1)c1ccccc1)c2CCc1ccccc1 [Compound 20] | 0.4

Continued, values first:

IC50 [nM] | Compound
17 | C=CCc1c(OC(Cn2ccnc2)c2ccccc2)ccc2c1CCCC2=O (racemic) [Compound 49, (±)-6-(2-imidazolyl-1-phenylethoxy)-5-prop-2-ethyl-2,3,4-trihydronaphthalen-1-one]
7 | C=CCc1c(OC(Cn2ccnc2)c2cccs2)ccc2c1CCCC2=O (racemic) [Compound 61, (±)-6-(2-imidazolyl-1-(2-thienyl)ethoxy)-5-prop-2-ethyl-2,3,4-trihydronaphthalen-1-one]
4 | Cc1nccn1CC(Oc1ccc2c(c1CCc1ccccc1)CCCC2=O)c1ccccc1 (racemic) [Compound 63o, (±)-6-[2-(2-Methyl-imidazol-yl)-1-phenyl-ethoxy]-5-phenethyl-3,4-dihydro-2H-naphthalen-1-one]
0.4 | O=C1CCCc2c1ccc(O[C@H](Cn1ccnc1)c1cccnc1)c2CCc1ccccc1 (single isomer, unassigned) [Compound 63a]
0.3 | COC(=O)c1ccccc1SCc1c(O[C@H](Cn2ccnc2)c2ccccc2)ccc2c1CCCC2=O [Compound 4, Methyl 2-{[2-((1S)-2-imidazolyl-1-phenylethoxy)-5-oxo-6,7,8-trihydronaphthyl]methylthio}benzoate]
2 | O=C(O)c1ccccc1SCc1c(O[C@H](Cn2ccnc2)c2ccccc2)ccc2c1CCCC2=O [Compound 5, 2-{[2-((1S)-2-Imidazolyl-1-phenylethoxy)-5-oxo-6,7,8-trihydronaphenyl]methylthio}benzoic acid]
3 | O=C1CCCc2c1ccc(O[C@H](Cn1ccnc1)c1ccccc1)c2CSc1ccncc1 [Compound 8]
30.5 | O=C1CCCc2c1ccc(O[C@H](Cn1ccnc1)c1ccccc1)c2CSc1cccc2ccccc12 [Compound 10a, 6-((S)-2-Imidazol-1-yl-1-phenyl-ethoxy)-5-(naphthalen-1-ylsulfanylmethyl)-3,4-dihydro-2H-naphthalen-1-one]
2.5 | COC(=O)CSCc1c(O[C@H](Cn2ccnc2)c2ccccc2)ccc2c1CCCC2=O [Compound 10b, [2-(2-Imidazol-1-yl-1(S)-phenyl-ethoxy)-5-oxo-5,6,7,8-tetrahydro-naphthalen-1-ylmethylsulfanyl]-acetic acid methyl ester]
2 | COC(=O)c1ccc(N(C)Cc2c(O[C@H](Cn3ccnc3)c3ccccc3)ccc3c2CCCC3=O)cc1 [Compound 13, Methyl 4-({[2-((1S)-2-imidazolyl-1-phenylethoxy)-5-oxo(6,7,8-trihydronaphthyl)]methyl}methylamino)benzoate]
0.8 | O=C1CCCc2c1ccc(O[C@H](Cn1ccnc1)c1ccccc1)c2COCc1ccccc1 [Compound 16, 6-((1S)-2-Imidazolyl-1-phenylethoxy)-5-[(phenylmethoxy)methyl]-2,3,4-trihydronaphthalen-1-one]
0.3 | O=C1CCCc2c1ccc(O[C@H](Cn1ccnc1)c1ccccc1)c2COC1CCCC1 [Compound 17]
3.6 | CCCOCc1c(O[C@H](Cn2ccnc2)c2ccccc2)ccc2c1CCCC2=O [Compound 19b, 6-((S)-2-Imidazol-1-yl-1-phenyl-ethoxy)-5-propoxymethyl-3,4-dihydro-2H-naphthalen-1-one]
8 | O=C1CCCc2c1ccc(O[C@H](Cn1ccnc1)c1ccccc1)c2-c1ccc2c(c1)OCO2 [Compound 21, 5-(2H-Benzo[d]-1,3-dioxolan-5-yl)-6-((1S)-2-imidazolyl-1-phenylethoxy)-2,3,4-trihydronaphthalen-1-one]
26 | O=C1CCCc2c1ccc(O[C@H](Cn1ccnc1)c1ccccc1)c2-c1cccc(Cl)c1 [Compound 22, 6-((1S)-2-Imidazolyl-1-phenylethoxy)-5-(3-chlorophenyl)-2,3,4-trihydronaphthalen-1-one]
11 | O=C1CCCc2c1ccc(O[C@H](Cn1ccnc1)c1ccccc1)c2-c1ccc2ccccc2c1 [Compound 23, 6-((1S)-2-Imidazolyl-1-phenylethoxy)-5-(2-naphthyl)-2,3,4-trihydronaphthalen-1-one]
